Test results from patent US20250228835A1, “PYRIDINYLOXYPYRIDINES AND RELATED COMPOUNDS AND THEIR USE IN TREATING MEDICAL CONDITIONS” (Rectify Pharmaceuticals, Inc., priority 2024, published 2025).

These molecules were tested against T1, ABCD2 WT (Homo sapiens, UniProt Q9UBJ2) (assay: D2 correction dose-response assay: ABCD2 WT HiBit protein expression). Details: HEK-293/ABCD2 WT cells, 24 hours treatment, HiBit luminescence; class combines EC50 and Mean MaxAct (fold); read-out: ABCD2 WT EC50, Emax.
T1 construct: expressed in transfected cells
T1 sequence (Q9UBJ2 1-740): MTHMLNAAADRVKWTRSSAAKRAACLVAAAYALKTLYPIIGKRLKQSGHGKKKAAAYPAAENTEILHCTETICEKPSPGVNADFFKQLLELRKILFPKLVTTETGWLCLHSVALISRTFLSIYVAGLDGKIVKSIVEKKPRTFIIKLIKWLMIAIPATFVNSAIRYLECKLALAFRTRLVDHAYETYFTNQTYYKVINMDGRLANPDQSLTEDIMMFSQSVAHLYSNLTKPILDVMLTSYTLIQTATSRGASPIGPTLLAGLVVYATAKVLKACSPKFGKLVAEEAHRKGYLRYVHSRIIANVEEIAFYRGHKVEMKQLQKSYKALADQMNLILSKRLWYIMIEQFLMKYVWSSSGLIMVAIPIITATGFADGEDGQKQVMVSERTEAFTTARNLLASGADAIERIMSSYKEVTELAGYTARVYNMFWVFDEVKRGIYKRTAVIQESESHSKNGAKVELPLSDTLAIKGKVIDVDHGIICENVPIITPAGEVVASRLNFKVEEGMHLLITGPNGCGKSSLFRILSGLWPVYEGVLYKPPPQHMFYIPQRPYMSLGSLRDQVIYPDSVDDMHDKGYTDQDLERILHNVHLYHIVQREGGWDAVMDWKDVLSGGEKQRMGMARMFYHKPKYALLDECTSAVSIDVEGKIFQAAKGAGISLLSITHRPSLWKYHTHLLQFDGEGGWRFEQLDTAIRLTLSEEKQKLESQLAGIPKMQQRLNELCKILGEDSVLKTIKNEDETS
Assay type: cell-based
Protocol: Exemplary compounds were evaluated in a D2 correction dose-response assay.
To assess activity against ABCD2, the compounds were screened in an assay measuring protein expression, using cells transfected with cDNA encoding HiBit-tagged ABCD2 wild-type. Here we describe an assay for measuring the expression of the wild type of human ABCD2 (henceforth referred to as ABCD2 WT) and the use of this assay to measure the efficacy of compounds to increase the expression of ABCD2 WT. The assay was designed to characterize the efficacy and potency of compounds to increase the expression of ABCD2 WT by calculating an Emax and EC50 value. HEK-293 cells stably expressing ABCD2 WT (HEK-293/ABCD2 WT) were used for this assay and were maintained at 37° C. (5% CO2, humidified) in Dulbecco's Modified Eagle Medium (DMEM, Gibco product #12100) supplemented with 10% fetal bovine serum (Biosera product #FB-1058/500), 1% PenStrep (HDB product #15140-122), and 0.5 mg/mL puromycin (Gibco product #A11138-03). For the assay, the HEK-293/ABCD2 WT cells were seeded in white/opaque 384-well plates (Corning product #3570) at 10,000 cells/well in 20 μl growth medium and allowed to settle for 4 hours at 37° C. (5% CO2, humidified). Compound serial dilutions are prepared in DMSO as three hundred times (333×) the final concentration and using a dilution factor of 3 using Bravo (Agilent). After the four-hour incubation period, 60 nL of DMSO solutions are transferred to the assay plate.
Dose response curves include eleven doses with the top final concentration at 30 μM in 0.3% DMSO. Liquid handling is performed with ECHO 550 Acoustic Liquid Handler (Labcyte). After addition of compound treatment, cells are incubated for 24 hours at 37° C. (5% CO2, humidified). After the 24-hour treatment, plates are allowed to equilibrate to room temperature for 10 minutes. Using Dragonfly Automated Liquid Handler (TTP LabTech), 20 μl of HiBit lytic assay reagent (Promega, product #N3040), which is prepared according to manufacturer's instructions, is added to each well. The plates are rotated at room temperature for 2 minutes and incubated for 1 hour at 25° C. before luminescent signal is acquired using an EnVision Multimode Plate Reader (PerkinElmer).

Row | Compound | EC50
1 | Cc1cc(C2CC2)nc(C)c1Oc1nc(-c2cncc(C#N)c2)ccc1NS(C)(=O)=O [Compound I-4] | < 1 µM
2 | Cc1cc(C)c(Oc2nc(-c3cncc(C#N)c3)ccc2NS(C)(=O)=O)c(C)n1 [Compound I-5] | < 1 µM
3 | Cc1cc(C)c(Oc2nc(-c3ccc(C#N)nc3C)ccc2NS(C)(=O)=O)c(C)c1 [Compound I-6] | < 1 µM
4 | Cc1cc(C)c(Oc2nc(-c3ccc(C#N)nc3)ccc2NS(C)(=O)=O)c(C)n1 [Compound I-7] | < 1 µM
5 | Cc1cc(C)c(Oc2nc(-c3cnc(C#N)c(Cl)c3)ccc2NS(C)(=O)=O)c(C)n1 [Compound I-8] | < 1 µM
6 | Cc1cc(C)c(Oc2nc(-c3cncc(Cl)c3)ncc2NS(C)(=O)=O)c(C)c1 [Compound I-9] | < 1 µM
7 | Cc1cc(C)c(Oc2nc(-c3cncc(C#N)c3)ncc2NS(C)(=O)=O)c(C)c1 [Compound I-10] | < 1 µM
8 | CNS(=O)(=O)c1ccc(-c2cncc(Cl)c2)nc1Oc1c(C)cc(C)cc1C [Compound I-95] | < 1 µM
9 | Cc1cc(C)c(Oc2nc(-c3cncc(Cl)c3)ccc2S(=O)(=O)N2CCCC2)c(C)c1 [Compound I-96] | 1 to 10 µM
10 | Cc1cc(C)c(Oc2nc(-c3cncc(Cl)c3)ccc2S(=O)(=O)N(C)C)c(C)c1 [Compound I-97] | 1 to 10 µM
11 | Cc1cc(C)c(Oc2nc(-c3cncc(Cl)c3)ccc2S(=O)(=O)NC2CC2)c(C)c1 [Compound I-98] | < 1 µM
12 | Cc1cc(C)c(Oc2nc(-c3cncc(Cl)c3)ccc2S(=O)(=O)NC(C)(C)C)c(C)c1 [Compound I-99] | > 25 µM
13 | Cc1cc(C)c(Oc2nc(-c3cncc(Cl)c3)ccc2S(N)(=O)=O)c(C)c1 [Compound I-100] | < 1 µM
14 | Cc1cc(C)c(Oc2nc(-c3cccc(Cl)c3)ccc2S(=O)(=O)NC2CCOC2)c(C)c1 (centres unmarked) [Compound I-101] | 1 to 10 µM
15 | Cc1cc(C)c(Oc2nc(-c3cccc(Cl)c3)ccc2S(N)(=O)=O)c(C)c1 [Compound I-102] | > 25 µM
16 | Cc1cc(C)c(Oc2nc(-c3cncc(Cl)c3)ccc2S(C)(=N)=O)c(C)c1 (centres unmarked) [Compound I-103] | 1 to 10 µM
17 | Cc1cc(C)c(Oc2nc(-c3cncc(Cl)c3)ccc2S(C)(=O)=O)c(C)c1 [Compound I-104] | > 25 µM
18 | Cc1cc(C(F)(F)F)nc(C2CC2)c1Oc1nc(-c2cncc(C#N)c2)ccc1S(=O)(=O)NC1CC1 [Compound I-133] | < 1 µM
19 | Cc1cc(C(F)F)nc(C2CC2)c1Oc1nc(-c2cncc(C#N)c2)ccc1N(C)S(=O)(=O)C1CC1 [Compound I-134] | 1 to 10 µM
20 | Cc1cc(C(F)F)nc(C2CC2)c1Oc1nc(-c2cncc(C#N)c2)ccc1N(C)S(C)(=O)=O [Compound I-135] | 1 to 10 µM
21 | Cc1cc(C)c(Oc2nc(-c3cncc(C#N)c3)ccc2N(C)S(=O)(=O)c2cccnc2)c(C2CC2)n1 [Compound I-136] | 1 to 10 µM
22 | Cc1cc(C(F)F)nc(C2CC2)c1Oc1nc(-c2cncc(C#N)c2)ccc1NS(C)(=O)=O [Compound I-137] | < 1 µM
23 | CS(=O)(=O)Nc1ccc(-c2cncc(C#N)c2)nc1Oc1c(C2CC2)nc(C(F)(F)F)nc1C1CC1 [Compound I-138] | < 1 µM
24 | Cc1cc(C(F)(F)F)nc(C2CC2)c1Oc1nc(-c2cncc(C#N)c2)ccc1N(C)S(=O)(=O)C1CC1 [Compound I-139] | 1 to 10 µM
25 | Cc1cc(C(F)(F)F)nc(C2CC2)c1Oc1nc(-c2cncc(C#N)c2)ccc1NS(=O)(=O)C1CC1 [Compound I-140] | < 1 µM
26 | Cc1cc(C(F)(F)F)nc(C2CC2)c1Oc1nc(-c2cncc(C#N)c2)ccc1NS(=O)(=O)C(C)C [Compound I-141] | < 1 µM
27 | Cc1nc(C(F)(F)F)nc(C2CC2)c1Oc1nc(-c2cncc(C#N)c2)ccc1N(C)S(C)(=O)=O [Compound I-142] | 1 to 10 µM

Row | Compound | EC50
28 | Cc1nc(C2COC2)nc(C2CC2)c1Oc1nc(-c2cncc(C#N)c2)ccc1NS(C)(=O)=O [Compound I-143] | < 1 µM
29 | Cc1nc(C(F)F)nc(C2CC2)c1Oc1nc(-c2cncc(C#N)c2)ccc1NS(C)(=O)=O [Compound I-144] | > 25 µM
30 | Cc1nc(C(F)(F)F)nc(C2CC2)c1Oc1nc(-c2cncc(C#N)c2)ccc1NS(C)(=O)=O [Compound I-145] | < 1 µM
31 | Cc1cc(C2CC2)nc(C2CC2)c1Oc1nc(-c2cncc(C#N)c2)ccc1N(C)S(C)(=O)=O [Compound I-146] | 10 to 25 µM
32 | Cc1cc(C)c(Oc2nc(-c3cncc(C#N)c3)ccc2NS(=O)(=O)c2cccnc2)c(C2CC2)n1 [Compound I-147] | < 1 µM
33 | CCS(=O)(=O)N(C)c1ccc(-c2cncc(C#N)c2)nc1Oc1c(C)cc(C(F)(F)F)nc1C1CC1 [Compound I-148] | < 1 µM
34 | Cc1nc(C(F)(F)F)nc(C2CC2)c1Oc1nc(-c2cncc(Cl)c2)ccc1N(C)S(C)(=O)=O [Compound I-149] | > 25 µM
35 | Cc1nc(C2CC2)nc(C2CC2)c1Oc1nc(-c2cncc(C#N)c2)ccc1NS(C)(=O)=O [Compound I-150] | < 1 µM
36 | Cc1nc(C(F)(F)F)nc(C2CC2)c1Oc1nc(-c2cncc(Cl)c2)ccc1NS(C)(=O)=O [Compound I-151] | < 1 µM
37 | CCS(=O)(=O)Nc1ccc(-c2cncc(C#N)c2)nc1Oc1c(C)cc(C(F)(F)F)nc1C1CC1 [Compound I-152] | < 1 µM
38 | Cc1cc(C(F)(F)F)nc(C2CC2)c1Oc1nc(-c2cncc(Cl)c2)ccc1N(C)S(C)(=O)=O [Compound I-153] | 1 to 10 µM
39 | Cc1nc(C(F)(F)F)cc(C2CC2)c1Oc1nc(-c2cncc(C#N)c2)ccc1N(C)S(C)(=O)=O [Compound I-154] | > 25 µM
40 | Cc1nc(C(F)(F)F)cc(C2CC2)c1Oc1nc(-c2cncc(C#N)c2)ccc1NS(C)(=O)=O [Compound I-155] | > 25 µM
41 | Cc1cc(C(F)(F)F)nc(C2CC2)c1Oc1nc(-c2cncc(C#N)c2)ccc1N(C)S(C)(=O)=O [Compound I-156] | < 1 µM
42 | Cc1nc(C)c(Oc2nc(-c3cncc(C#N)c3)ccc2N(C)S(C)(=O)=O)c(C2CC2)n1 [Compound I-157] | 10 to 25 µM
43 | Cc1cc(C(F)(F)F)nc(C2CC2)c1Oc1nc(-c2cncc(Cl)c2)ccc1NS(C)(=O)=O [Compound I-158] | < 1 µM
44 | Cc1nc(N2CC(C#N)C2)nc(C)c1Oc1nc(-c2cncc(C#N)c2)ccc1NS(C)(=O)=O [Compound I-159] | < 1 µM
45 | Cc1nc(N2CC3(COC3)C2)nc(C)c1Oc1nc(-c2cncc(C#N)c2)ccc1NS(C)(=O)=O [Compound I-160] | > 25 µM
46 | Cc1cc(C2CC2)nc(C2CC2)c1Oc1nc(-c2cncc(C#N)c2)ccc1NS(C)(=O)=O [Compound I-161] | > 25 µM
47 | Cc1nc(C2CC2)cc(C2CC2)c1Oc1nc(-c2cncc(C#N)c2)ccc1NS(C)(=O)=O [Compound I-162] | > 25 µM
48 | Cc1cc(C(F)(F)F)nc(C2CC2)c1Oc1nc(-c2cncc(C#N)c2)ccc1NS(C)(=O)=O [Compound I-163] | < 1 µM
49 | Cc1nc(C)c(Oc2nc(-c3cncc(Cl)c3)ccc2NS(C)(=O)=O)c(C2CC2)n1 [Compound I-164] | 1 to 10 µM
50 | Cc1cc(C(F)(F)F)nc(C2CC2)c1Oc1nc(-c2cncc(C#N)c2)ccc1N=S(C)(C)=O [Compound I-286] | < 1 µM
51 | Cc1cc(C(F)(F)F)nc(C2CC2)c1Oc1nc(-c2cncc(C#N)c2)ccc1S(=N)(=O)C1CC1 (centres unmarked) [Compound I-287] | > 25 µM
52 | Cc1cc(C(F)F)nc(C2CC2)c1Oc1nc(-c2cncc(C#N)c2)ccc1S(=O)(=O)NC1CC1 [Compound I-288] | 1 to 10 µM
53 | CNS(=O)(=O)c1ccc(-c2cncc(C#N)c2)nc1Oc1c(C)cc(C(F)F)nc1C1CC1 [Compound I-289] | 1 to 10 µM
